Measured values as given in US6011000A, “Compositions for the treatment of blood disorders” (priority 1995, dated 2000).
Where two headings read alike, the source gives them in different places.

Tests used:
[1] = test system: erythroid cells (peripheral blood); assay: Erythroid cell viability by fluorescent staining (Calcein-AM), FIG. 2; assay type: cell-based, human; details: vs untreated controls
Method: FIG. 2 Peripheral blood cell viability after incubation with arginine butyrate, dihydrocinnamic acid, phenoxyacetic acid and butyric acid ethyl ester.
Compositions were tested for the ability to directly stimulate erythroid cell growth. Cell growth stimulation is a useful property for an agent to be used to treat anemias and distinguishes such agents from the cytotoxic drugs currently being tested for treatment of hemoglobinopathies. Cell viability analyses were performed using fluorescent staining to detect living cells. Cells were in log phase of growth in 6-well dishes when used in proliferation assays. For enumeration of living cells, wells were washed once with medium to remove nonadherent or dead cells. Remaining live cells were labeled with 2 μM 2',7'-bis-(carboxyethyl)-5-(and 6)-carboxy-fluorescein acetoxy-methyl ester (Calcein-AM) (Molecular Probes; Eugene, Oreg.) for 20 minutes at 37° C. and washed once. Fluorescence intensity of live cells was read on a CytoFluor 2300 Fluorescence Plate Scanner (Millipore; Bedford, Mass.) at excitation and emission wavelengths of 485 and 530 nm, respectively. The fluorescence intensity of a well was proportional to the number of living cells in the well. Background fluorescence was measured separately for each plate and subtracted from all readings. Each experiment was performed in triplicate or quadruplicate. The standard deviation (SD) of repetitive readings was less than 30% of the mean. Results are depicted in FIG. 2.

K562 cells = assay: Dose response of cell growth, trypan blue exclusion (FIG. 3); assay type: cell-based, human; details: day 4
Method: FIG. 3 Cell viability as determined by the comparative numbers of total and viable K562 cells in the presence of increasing concentrations of (A) phenoxyacetic acid, (B) dihydrocinnamic acid, (C) butyric acid ethyl ester, (D) arginine butyrate, and (E) isobutyramide.
Dose response curves at dosages of up to 2.0 mM were also determined for phenoxyacetic acid (PAA; FIG. 3A), dihydrocinnamic acid (DHC; FIG. 3B), butyric acid ethyl ester (BAEE; FIG. 3C), arginine butyrate (AB; FIG. 3D) and isobutyramide (IBT; FIG. 3E). Cells were counted on day 4 of treatment and viable cells identified by trypan blue exclusion.

[2] = test system: fetal globin mRNA (human erythroleukemia cells); assay: Fetal globin mRNA in erythroleukemia cells (primer extension); assay type: cell-based; details: for Gamma/Alpha: untreated 0.46; for activation at 1000 µM: Homo sapiens, 96 h, read-out: Gamma Globin mRNA (increase)
Method: Compounds were tested for increased expression of the human globin genes in human erythroid cells. In addition, as the cell line being tested is a tumor cell line, the assay determines if differentiation, a growth inhibitory effect on cancer cells, is induced by the compounds tested. Human erythroleukemia cells were cultured in RPMI media with 10% fetal calf serum alone or with treatment with various compounds for 4 days. Globin MRNA was quantitated by primer extension analysis. Fetal globin mRNA was compared to the amount of fetal globin mRNA produced in untreated cells during the same culture period. The quantitation was expressed as a percent of alpha globin MRNA which was constant. Results are expressed proportional to α-globin mRNA (Table 3).

human erythroid cells = assay: DNA fragmentation by flow cytometry (degradation of DNA); assay type: cell-based; details: for Degraded DNA: 4 days, control 26%, 22%; for proportion of degraded DNA: 1.0 mM to 2.0 mM, untreated 26%; for DNA fragmentation / cell viability / DNA integrity: DNA fragmentation assays
Method: Such activities might limit their utility for treatment of anemias such as occur in thalassemia, but alternatively would be useful for anticancer effects. To determine cell viability, human erythroid cells were cultured in the presence and absence of these compounds for 4 days and the amount of DNA fragmentation which occurred was measured.
Flow cytometric determination of DNA profiles and DNA fragmentation were determined. Cytometric analysis was performed with a FACScan (Becton Dickenson Instruments; Columbia, Md.). The data analysis and display were performed using the Cell-Fit software program. Approximately 0.5×10^6 cells were washed twice with PBS and resuspended in 1 ml of 1% sodium citrate, 0.1% Triton X-100 and 50 μg of propidium iodide/ml. Resulting permeabilized cells were kept in the dark at 4° C. overnight before DNA profile or DNA fragmentation analysis (Table 4).

anemic baboon = assay: In vivo reticulocyte proliferation, globin expression and blood counts in anemic (phlebotomized) baboons
In short: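 Juvenile female baboons kept at 7.0–7.5 g/dl haemoglobin by daily phlebotomy got compounds sequentially, with wash-out until reticulocytes returned to baseline; each animal served as its own control. F-reticulocytes were measured by dual-antibody FACS, and γ/(γ+β) globin synthesis by ³H-leucine labelling and column chromatography. Blood counts were taken, unadjusted for phlebotomy.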

[3] = test system: system A transport (K562 cells and nucleated erythroblasts from fetal liver); assay: Effects on system A amino acid transport (3H-MAIB uptake); assay type: cell-based, human
Method: Inhibition of nutrient uptake is undesirable for treatment of anemias. Methyl aminoisobutyric acid (MAIB) labeled with tritium (^3 H) is normally taken up by system A amino acid transport. Cold (unlabeled) compounds were added to cultures containing ^3 H-MAIB and incubated for 1 hour. Cells were harvested and the amount of ^3 H taken up by cells was quantitated by scintillation counting.

[4] = 1,000 to 1,500 mg/kg/day i.v., 4 days

## CCCC(=O)O [AB, arginine butyrate]
[1]; 0.2 mM
  erythroid cell growth and proliferation: inhibited proliferation
[1]; 0.5 mM
  erythroid cell growth and proliferation: inhibited proliferation
K562 cells; concentrations above 0.2 mM
  cell growth: suppressed cell growth
[2]
  induction of fetal globin mRNA: significantly increased the induction of fetal globin MRNA
[2]; 1.0 mM, 4 days
  Gamma/Alpha: 0.66
  activation at 1000 µM: 20%
Human erythroid cells; 0.5 mM
  Degraded DNA: 32%
Human erythroid cells
  proportion of degraded DNA: 44%
  DNA fragmentation / cell viability / DNA integrity: decrease cell viability
Human erythroid cells; 1.0 mM
  Degraded DNA: 34%
Human erythroid cells; 2.0 mM
  Degraded DNA: 44%
Anemic baboon; 1,000 mg/kg for 5 days
  response to treatment: had not responded
Anemic baboon; 2,000 mg/kg for 3 days
  response to treatment: had not responded
[3]
  system A (neutral) amino acid transport: inhibited the neutral amino acid transport mechanism

## O=C(O)COc1ccccc1 [PAA, Phenoxyacetic acid]
[1]; 0.5 mM
  erythroid cell growth and proliferation: either had no effect or stimulated erythroid cell growth and proliferation
K562 cells; up to 2.0 mM
  proliferation: did not significantly inhibit proliferation
[2]
  induction of fetal globin mRNA: significantly increased the induction of fetal globin MRNA
  activation at 1000 µM: 24%
[2]; 1.0 mM, 4 days
  Gamma/Alpha: 0.70
Human erythroid cells
  proportion of degraded DNA: 20.6%
  DNA fragmentation / cell viability / DNA integrity: reduce DNA fragmentation
Human erythroid cells; 2.0 mM
  Degraded DNA: 20.6%
Anemic baboon; 1,500 mg/kg infused daily, 5 days
  duration of effect after drug was discontinued: maintained itself for two days after drug was discontinued and slowly declined thereafter
Anemic baboon; 1,500 mg/kg infused daily, 5 days (FIG. 7), from 6.8
  Total hemoglobin: 7.6 grams/dl
Anemic baboon; 1,500 mg/kg infused daily, 5 days, from 1.9%
  reticulocytes: 9.2 % of all red blood cells
Anemic baboon; 1,500 mg/kg infused daily, 5 days, from 6.9
  white blood cell count: 9.5 10^3 cells/μl
Anemic baboon; 1,500 mg/kg infused daily, 5 days, from 22%
  packed red blood cell volume: 25.4%
Anemic baboon; 500, 1,000, 1,500 mg/kg infused, after 3 days (FIG. 9), from 12%
  Fetal reticulocytes: 27%
Anemic baboon; [4]
  Fetal reticulocytes, increase above baseline: 800%
  Fetal reticulocytes, increase above baseline (fold): eight-fold
  increase in output of fetal globin production over basal levels: 4,000%
Anemic baboon; 1,000 to 1,500 mg/kg/day i.v., 4 days, another juvenile baboon, from 2%
  Fetal reticulocytes: 16%
Anemic baboon; 1,000 to 1,500 mg/kg/day i.v., 4 days, from 0%
  Fetal globin protein synthesis: 5%
[3]; 1 hour, 3H-MAIB (FIG. 12), listed as phenoxy acetic acid
  system A (neutral) amino acid transport: caused no significant inhibition and actually increased uptake of nutrients into cells
[3]; 1 hour, 3H-MAIB (FIG. 12), listed as phenoxyacetic acid
  system A (neutral) amino acid transport: do not significantly alter system A transport of amino acids
